This note sets out measurements from EPA's ToxValDB 9.5 (doi:10.2903/j.efsa.2005.285).

In data set [1] the test system is Bovidae. To be noted: subchronic, oral, diet; for LEL: duration: 12 weeks, no effects.
Data set [2] deals with Canidae. The note with it: chronic, oral, Beagle, organ weight.
The subject of data set [3] is Gallus gallus. The note with it: reproduction developmental, oral, diet, F.
The subject of data set [4] is Oncorhynchus mykiss. The note with it: chronic/long-term; duration: 240 days; oral; feed; clinical chemistry.
Data set [5] deals with Ovis sp. To be noted: oral, diet.
For data set [6], the system named is Sus scrofa. The note with it: subchronic; duration: 60 days; oral; diet; Not specified; no effects.

Usually NOAEL stands for the highest dose or exposure tested at which no adverse effect was seen.

`ClC1=C(Cl)[C@]2(Cl)[C@@H]3[C@@H]4C[C@@H]([C@H]5O[C@@H]45)[C@@H]3[C@@]1(Cl)C2(Cl)Cl` [Dieldrin]: the LEL in data set [1] (F) was 0.08 mg/kg-day; in data set [1] (M), 0.06 mg/kg-day; in data set [6], 1.2 mg/kg-day. For the same compound, the NOAEL was determined as 0.005 mg/kg-day in data set [2] (duration: 2 years, capsule); 0.6 mg/kg-day in data set [3] (duration: 13 months, mortality); 1 mg/kg-day in data set [5] (chronic, duration: 32 weeks, body weight). For the same compound, in data set [4], the LOEL is 14 µg/kg-day.

For `ClC1=C(Cl)[C@]2(Cl)[C@H]3[C@H]([C@@H]4C=C[C@H]3C4)[C@@]1(Cl)C2(Cl)Cl` [Aldrin], the LEL in data set [1] (M) came to 0.3 mg/kg-day; in data set [5] (subchronic, duration: 12 weeks, no effects) it was 0.3 mg/kg-day. The NOAEL was 1.5 mg/kg-day in data set [1] (duration: 43 days, F, clinical signs); 0.05 mg/kg-day in data set [2] (duration: 15.6 months, diet, M/F); 0.06 mg/kg-day in data set [3] (duration: 2 years, no effects).
